Key:
Format in all cases: in vivo
[1] = tested on: Southern Chinch Bug (Blissus insularis); assay: Field plot trial on St. Augustine grass infested with Southern Chinch Bug, number of live bugs (Example 1); conditions: for Number of Chinch bugs 0 Days After Application / Number of Chinch bugs 4 Days After Application / Number of chinch bugs 7 Days After Application / Number of chinch bugs 18 Days After Application: spray, 40 gallons water per acre, spirotetramat 111 g/ha, azadirachtin 222 g/ha, imidacloprid + azadirachtin 111 + 222 g/ha; for Control of Southern chinch bugs (in words): Example 1, summary of Table 1
Method: Plots approximately 6 feet by 10 feet with three replicates and planted with St. Augustine grass are infested with the Southern Chinch Bug (Blissus insularis). Using a sprayer (research back pack sprayers), Spirotetramat (MOVENTO 240 SC) on its own, azadirachtin (AZATIN XL) on its own, and a mixture of imidacloprid (MERIT 240 SC) and azadirachtin, are applied at the application rates specified. The water application rate is 40 gallons per acre. The evaluation is performed 0 days, 4 days, 7 days, and 18 days after the treatment by determining the number of live Southern Chinch Bugs.

St. Augustine grass = assay: Chlorophyll content of St. Augustine grass infected with Southern chinch bug (Example 2); conditions: Allectus 1083 g ai/ha total, imidacloprid 448.8 g ai/ha, spirotetramat 175.8 g ai/ha, mixture 175.8 + 448.8 g ai/ha; for Chlorophyll Content 5 days: 5 days after treatment; for Chlorophyll Content 13 days: 13 days after treatment; for Chlorophyll Content 41 days: 41 days after treatment; for Chlorophyll Content 58 days: 58 days after treatment
Source text: (§1) Plots approximately 30 ft by 10 ft with 3 replicates and planted with St. Augustine grass are infected with Southern chinch bug (Blissus insularis). Using a pneumatic sprayer, a mixture of the spirotetramat (MOVENTO 240 SC) and imidacloprid (MERIT 240 SC) is applied in comparision to the spirotetramat (MOVENTO 240 SC) on its own, the imidacloprid (MERIT 240 SC) on its own, and the gold standard Pyrethrin treatment ALLECTUS™ (imidacloprid+bifenthrin), at the application rates specified. The water application rate is 40 gallons per acre. The evaluation is performed 0 days, 5 days, 13 days, 29 days, 41 days, and 58 days after the treatment by determining the number of chinch bugs and the chlorophyll content of the grass. The higher the chlorophyll content of the grass, the greener and lusher the grass is.

[2] = tested on: Southern Chinch Bug (Blissus insularis); assay: Field plot trial on St. Augustine grass infected with Southern chinch bug, number of chinch bugs (Example 2); conditions: for Number of chinch bugs at 0 Days / Number of chinch bugs at 5 days / Number of chinch bugs at 13 days / Number of chinch bugs at 29 days / Number of chinch bugs at 41 days / Number of chinch bugs at 58 days: Allectus 1083 g ai/ha total, imidacloprid 448.8 g ai/ha, spirotetramat 175.8 g ai/ha, mixture 175.8 + 448.8 g ai/ha; for Number of chinch bugs at 5 days: 5 days after treatment; for Number of chinch bugs at 13 days: 13 days after treatment; for Number of chinch bugs at 29 days: 29 days after treatment; for Number of chinch bugs at 41 days: 41 days after treatment; for Number of chinch bugs at 58 days: 58 days after treatment; for Control of Southern chinch bugs (in words): Example 2, summary of Table 2, up to 58 days after treatment
Source text: as §1

CCOC(=O)OC1=C(c2cc(C)ccc2C)C(=O)N[C@]12CC[C@@H](OC)CC2 [Spirotetramat]
Number of Chinch bugs 0 Days After Application [1]: 6
Number of Chinch bugs 4 Days After Application [1]: 12
Number of chinch bugs 7 Days After Application [1]: 6
Number of chinch bugs 18 Days After Application [1]: 10
Control of Southern chinch bugs (in words) [1]: none of the compounds provided good control
Chlorophyll Content 5 days (St. Augustine grass): 3.338
Chlorophyll Content 13 days (St. Augustine grass): 3.250
Chlorophyll Content 41 days (St. Augustine grass): 2.292
Chlorophyll Content 58 days (St. Augustine grass): 2.149
Number of chinch bugs at 0 Days [2]: 50
Number of chinch bugs at 5 days [2]: 45
Number of chinch bugs at 13 days [2]: 73
Number of chinch bugs at 29 days [2]: 45
Number of chinch bugs at 41 days [2]: 83
Number of chinch bugs at 58 days [2]: 26
Control of Southern chinch bugs (in words) [2]: neither spirotetramat or imidacloprid alone provided good control

O=[N+]([O-])/N=C1\NCCN1Cc1ccc(Cl)nc1 [Imidacloprid, imidacloprid]
Control of Southern chinch bugs (in words) [1]: none of the compounds provided good control
Chlorophyll Content 5 days (St. Augustine grass): 2.733
Chlorophyll Content 13 days (St. Augustine grass): 3.215
Chlorophyll Content 41 days (St. Augustine grass): 3.185
Chlorophyll Content 58 days (St. Augustine grass): 3.250
Number of chinch bugs at 0 Days [2]: 50
Number of chinch bugs at 5 days [2]: 19
Number of chinch bugs at 13 days [2]: 41
Number of chinch bugs at 29 days [2]: 30
Number of chinch bugs at 41 days [2]: 65
Number of chinch bugs at 58 days [2]: 9
Control of Southern chinch bugs (in words) [2]: neither spirotetramat or imidacloprid alone provided good control

C/C=C(\C)C(=O)O[C@H]1C[C@@H](OC(C)=O)[C@@]2(C(=O)OC)CO[C@H]3[C@@H](O)[C@@](C)([C@]45O[C@@]4(C)[C@H]4C[C@@H]5O[C@@H]5OC=C[C@@]54O)[C@H]4[C@]1(CO[C@]4(O)C(=O)OC)[C@@H]32 [Azadirachtin, azadirachtin]
Number of Chinch bugs 0 Days After Application [1]: 12
Number of Chinch bugs 4 Days After Application [1]: 15
Number of chinch bugs 7 Days After Application [1]: 5
Number of chinch bugs 18 Days After Application [1]: 11

Reference: US9241486B2, “Combination and methods for controlling turfgrass pests” (Bayer CropScience LP, priority 2012, dated 2016)
